Structures can show the parent of a compound that is named as a salt.
Target: T1, hiNOS (Homo sapiens, UniProt P35228)
T1 construct: expressed in transfected cells; host or cells: HEK293
Test: DAN assay, hiNOS expressed in transiently transfected HEK293 cells
Format: cell-based
Conditions: HEK293 cells transiently transfected with hiNOS
Excerpt: The source of nitric oxide synthase (NOS) enzyme can be generated in several ways including induction of endogenous iNOS using cytokines and/or lipopolysaccharide (LPS) in various cell types known in the art. Alternatively, the gene encoding the enzyme can be cloned and the enzyme can be generated in cells via heterologous expression from a transient or stable expression plasmid with suitable features for protein expression as are known in the art. Enzymatic activity (nitric oxide production) is calcium independent for iNOS, while the constitutive NOS isoforms, nNOS and eNOS, become active with the addition of various cofactors added to cellular media or extract as are well known in the art. Enzymes specified in Table 1 were expressed in HEK293 cells transiently transfected with the indicated NOS isoform.
A major metabolic pathway for nitric oxide is to nitrate and nitrite, which are stable metabolites within tissue culture, tissue, plasma, and urine (S Moncada, A Higgs, N Eng J Med 329, 2002 (1993)).
The level of nitrate or nitrite in the specimen can be quantified by any method known in the art which provides adequate sensitivity and reproducibility. A variety of protocols have also been described for detecting and quantifying nitrite and nitrate levels in biological fluids by ion chromatography (e.g., S A Everett et al., J. Chromatogr. 706, 437 (1995); J M Monaghan et al., J. Chromatogr. 770, 143 (1997)), high-performance liquid chromatography (e.g., M Kelm et al., Cardiovasc. Res. 41, 765 (1999)), and capillary electrophoresis (M A Friedberg et al., J. Chromatogr. 781, 491 (1997)). For example, 2,3-diaminonaphthalene reacts with the nitrosonium cation that forms spontaneously from NO to form the fluorescent product […]. Using 2,3-diaminonaphthalene (“DAN”), researchers have developed a rapid, quantitative fluorometric assay that can detect from 10 nM to 10 μM nitrite and is compatible with a multi-well microplate format. […] DAN reacts with nitrite ion and gives fluorescent […] (M C Carré et al., Analysis 27, 835-838 (1999)). Table 1 provides the test results of various compounds of the subject invention using the DAN assay.
A specimen can be processed prior to determination of nitrate or nitrite as required by the quantification method, or in order to improve the results, or for the convenience of the investigator. For example, processing can involve centrifuging, filtering, or homogenizing the sample. If the sample is whole blood, the blood can be centrifuged to remove cells and the nitrate or nitrite assay performed on the plasma or serum fraction. If the sample is tissue, the tissue can be dispersed or homogenized by any method known in the art prior to determination of nitrate or nitrite. It may be preferable to remove cells and other debris by centrifugation or another method and to determine the nitrate or nitrite level using only the fluid portion of the sample, or the extracellular fluid fraction of the sample. The sample can also be preserved for later determination, for example by freezing of urine or plasma samples. When appropriate, additives may be introduced into the specimen to preserve or improve its characteristics for use in the nitrate or nitrite assay.
The “level” of nitrate, nitrite, or other NO-related product usually refers to the concentration (in moles per liter, micromoles per liter, or other suitable units) of nitrate or nitrite in the specimen, or in the fluid portion of the specimen. However, other units of measure can also be used to express the level of nitrate or nitrite. For example, an absolute amount (in micrograms, milligrams, nanomoles, moles, or other suitable units) can be used, particularly if the amount refers back to a constant amount (e.g., grams, kilograms, milliliters, liters, or other suitable units) of the specimens under consideration. A number of commercially available kits can be used.

SMILES | EC50
CC(NCCOCc1ccc2c(c1)OCO2)c1nc(-n2ccnc2)ns1 (stereo not shown) [Example 65, [2-(Benzo[1,3]dioxol-5-ylmethoxy)-ethyl]-[1-(3-imidazol-1-yl-[1,2,4]thiadiazol-5-yl)-ethyl]-amine] | < 1 µM
CCOC(=O)C(CC(=O)NCCc1ccc2c(c1)OCO2)c1nc(-n2ccnc2)ns1 (stereo not shown) [Example 67, N-(2-Benzo[1,3]dioxol-5-yl-ethyl)-2-(3-imidazol-1-yl-[2,4]thiadiazol-5-yl)-succinamic acid ethyl ester] | < 1 µM
Cc1cc(C(C)(C)/C=C/C(=O)NCc2ccc3c(c2)OCO3)nc(-n2ccnc2)n1 [Example 74, (E)-4-(2-(1H-Imidazol-1-yl)-6-methylpyrimidin-4-yl)-N-(benzo[d][1,3]dioxol-5-ylmethyl)-4-methylpent-2-enamide] | < 50 µM
Cc1cc(C(C)(C)NCCNCc2ccc3c(c2)OCO3)nc(-n2ccnc2)n1 [Example 77, N-1-(2-(2-(1H-Imidazol-1-yl)-6-methylpyrimidin-4-yl)propan-2-yl)-N-2-(benzo[d][1,3]dioxol-5-ylmethyl)ethane-1,2-diamine hydrochloride] | < 1 µM
CN(CCCN(C)c1nc(-n2ccnc2)ns1)Cc1ccc2c(c1)OCO2 [Example 79, N-Benzo[1,3]dioxol-5-ylmethyl-N′-(3-imidazol-1-yl-[1,2,4]thiadiazol-5-yl)-N,N′-dimethyl-propane-1,3-diamine] | < 1 µM
CN(CCCNCc1ccc(C(F)(F)F)cc1)c1nc(-n2ccnc2)ns1 [Example 11, N-(3-Imidazol-1-yl-[1,2,4]thiadiazol-5-yl)-N-methyl-N′-(4-trifluoromethyl-benzyl)-propane-1,3-diamine] | > 50 µM
CC(NCCNCc1ccc2c(c1)OCO2)c1nc(-n2ccnc2)ns1 (stereo not shown) [Example 64, N-Benzo[1,3]dioxol-5-ylmethyl-N′-[1-(3-imidazol-1-yl-[1,2,4]thiadiazol-5-yl)-ethyl]-ethane-1,2-diamine] | < 1 µM
Cc1cc(C(C)(C)CNCCCc2ccc3c(c2)OCO3)nc(-n2ccnc2)n1 [Example 78, (3-Benzo[1,3]dioxol-5-yl-propyl)-{2-[2-(2H-imidazol-1-yl)-6-methyl-pyrimidin-4-yl]-2-methyl-propyl}-amine hydrochloride] | < 1 µM
COc1ccc(CNCCCN(C)c2nc(-n3ccnc3)ns2)cc1 [Example 8, N-(3-Imidazol-1-yl-[1,2,4]thiadiazol-5-yl)-N′-(4-methoxy-benzyl)-N-methyl-propane-1,3-diamine] | < 1 µM
CN(CCCN)c1nc(-n2ccnc2)ns1 [Example 6, N-1-(3-Imidazol-1-yl-[1,2,4]thiadiazol-5-yl)-N-1-methyl-propane-1,3-diamine] | > 50 µM
CNC(=O)CN(CCCNCc1ccc2c(c1)OCO2)c1nc(-n2ccnc2)ns1 [Example 56, 2-[{3-[(Benzo[1,3]dioxol-5-ylmethyl)-amino]-propyl}-(3-imidazol-1-yl-[1,2,4]thiadiazol-5-yl)-amino]-N-methyl-acetamide] | < 1 µM
CCOC(=O)CN(Cc1cc(C)nc(-n2ccnc2)n1)C(=O)NCCc1ccc2c(c1)OCO2 [Example 69, [3-(2-Benzo[1,3]dioxol-5-yl-ethyl)-1-(2-imidazol-1-yl-6-methyl-pyrimidin-4-ylmethyl)-ureido]-acetic acid ethyl ester] | < 1 µM
O=C(NCCc1ccc2c(c1)OCO2)[C@@H]1CCCN1c1nc(-n2ccnc2)ns1 [Example 25, (S)-1-(3-Imidazol-1-yl-[1,2,4]thiadiazol-5-yl)-pyrrolidine-2-carboxylic acid (2-benzo[1,3]dioxol-5-yl-ethyl)-amide] | > 50 µM
Cc1cc(C2CCCN2CCN(C)Cc2ccc3c(c2)OCCO3)nc(-n2ccnc2)n1 (stereo not shown) [Example 93, (2,3-Dihydro-benzo[1,4]dioxin-6-ylmethyl)-{2-[2-(2-imidazol-1-yl-6-methyl-pyrimidin-4-yl)-pyrrolidin-1-yl]-ethyl}-methyl-amine] | < 1 µM

Other lines, results leading:

EC50 | SMILES
< 1 µM | Cc1cc(C2C(c3nccs3)CCN2CCNCc2ccc3c(c2)OCO3)nc(-n2ccnc2)n1 (stereo not shown) [Example 140, Benzo[1,3]dioxol-5-ylmethyl-{2-[2-(2-imidazol-1-yl-6-methyl-pyrimidin-4-yl)-3-thiazol-2-yl-pyrrolidin-1-yl]-ethyl}-amine]
< 1 µM | O=C(NCCc1ccc2c(c1)OCCO2)[C@H]1CCCN1c1nc(-n2ccnc2)ns1 [Example 120, 1-(3-Imidazol-1-yl-[1,2,4]thiadiazol-5-yl)-pyrrolidine-2-carboxylic acid [2-(2,3-dihydro-benzo[1,4]dioxin-6-yl)-ethyl]-amide]
< 1 µM | CCOC(=O)CC(NCCNCc1ccc2c(c1)OCO2)c1cc(C)nc(-n2ccnc2)n1 (stereo not shown) [Example 135, Benzo[1,3]dioxol-5-ylmethyl-{2-[2-ethoxycarbonyl-1-(2-imidazol-1-yl-6-methyl-pyrimidin-4-yl)-ethylamino]-ethyl}-ammonium trifluoroacetate]
< 1 µM | Cc1cc(C2CCCCN2CCNCc2ccc3c(c2)OCO3)nc(-n2ccnc2)n1 (stereo not shown) [Example 142, Benzo[1,3]dioxol-5-ylmethyl-{2-[2-(2-imidazol-1-yl-6-methyl-pyrimidin-4-yl)-piperidin-1-yl]-ethyl}-amine]
< 1 µM | O=C(NCCc1ccc2c(c1)OCO2)[C@H]1Cc2ccccc2CN1c1nc(-n2ccnc2)ns1 [Example 129, (R)-2-(3-Imidazol-1-yl-[1,2,4]thiadiazol-5-yl)-1,2,3,4-tetrahydro-isoquinoline-3-carboxylic acid (2-benzo[1,3]dioxol-5-yl-ethyl)-amide]
< 1 µM | Cc1cc(C2CCC(=O)N2CCNCc2ccc3c(c2)OCCO3)nc(-n2ccnc2)n1 (stereo not shown) [Example 139, 1-{2-[(2,3-Dihydro-benzo[1,4]dioxin-6-ylmethyl)-amino]-ethyl}-5-(2-imidazol-1-yl-6-methyl-pyrimidin-4-yl)-pyrrolidin-2-one hydrochloride]
> 50 µM | Cc1cc(CNC(=O)C2CCCN2Cc2ccc3c(c2)OCO3)nc(-n2ccnc2)n1 (stereo not shown) [Example 116, 1-Benzo[1,3]dioxol-5-ylmethyl-pyrrolidine-2-carboxylic acid (2-imidazol-1-yl-6-methyl-pyrimidin-4-ylmethyl)-amide]
> 50 µM | COc1cc(CN2CCCC2C(=O)NCc2cc(C)nc(-n3ccnc3)n2)cc(OC)c1 (stereo not shown) [Example 110, 1-(3,5-Dimethoxy-benzyl)-pyrrolidine-2-carboxylic acid (2-imidazol-1-yl-6-methyl-pyrimidin-4-ylmethyl)-amide]
> 50 µM | Cc1cc(CNC(=O)C2CCCN2Cc2cccc(C(F)(F)F)c2)nc(-n2ccnc2)n1 (stereo not shown) [Example 108, 1-(3-Trifluoromethyl-benzyl)-pyrrolidine-2-carboxylic acid (2-imidazol-1-yl-6-methyl-pyrimidin-4-ylmethyl)-amide]
> 50 µM | Cc1cc(CNC(=O)C2CCCN2Cc2ccsc2)nc(-n2ccnc2)n1 (stereo not shown) [Example 119, 1-Thiophen-3-ylmethyl-pyrrolidine-2-carboxylic acid (2-imidazol-1-yl-6-methyl-pyrimidin-4-ylmethyl)-amide]
> 50 µM | Cc1cc(CNC(=O)C2CCCN2Cc2ccc(OCCO)cc2)nc(-n2ccnc2)n1 (stereo not shown) [Example 117, 1-[4-(2-Hydroxy-ethoxy)-benzyl]-pyrrolidine-2-carboxylic acid (2-imidazol-1-yl-6-methyl-pyrimidin-4-ylmethyl)-amide]

From patent publication US7825256B2, “Inducible nitric oxide synthase dimerization inhibitors” (Kalypsys, Inc., priority 2004, dated 2010)
